pKi: −log10 of the molar value. Several values for one entry are separate records, joined by “and”; a condition that tells them apart may be missing. Identical values can stand only once.
Assay: Ability to inhibit [3H](+)-pentazocine binding to guinea pig brain Sigma receptor type 1

SMILES	pKi
CN1CCC2(c3cccc(O)c3)CC(=O)C(=Cc3ccc(I)cc3)C1C2 (stereo not given) [5-(3-Hydroxy-phenyl)-8-[1-(4-iodo-phenyl)-meth-(E)-ylidene]-2-methyl-2-aza-bicyclo[3.3.1]nonan-7-one]	8.77
CN1CCC2(c3cccc(O)c3)CC(=O)C(=CC3CC3)C1C2 (stereo not given) [8-[1-Cyclopropyl-meth-(E)-ylidene]-5-(3-hydroxy-phenyl)-2-methyl-2-aza-bicyclo[3.3.1]nonan-7-one]	7.21
COc1ccc(C=C2C(=O)CC3(c4cccc(O)c4)CCN(C)C2C3)cc1 (stereo not given) [5-(3-Hydroxy-phenyl)-8-[1-(4-methoxy-phenyl)-meth-(E)-ylidene]-2-methyl-2-aza-bicyclo[3.3.1]nonan-7-one]	8.72 and 8.11
CN1CCC2(c3cccc(O)c3)CC(=O)C(=Cc3ccc4ccccc4c3)C1C2 (stereo not given) [5-(3-Hydroxy-phenyl)-2-methyl-8-[1-naphthalen-2-yl-meth-(E)-ylidene]-2-aza-bicyclo[3.3.1]nonan-7-one]	7.78
CN1CCC2(c3cccc(O)c3)CC(=O)C(=Cc3cccc(I)c3)C1C2 (stereo not given) [5-(3-Hydroxy-phenyl)-8-[1-(3-iodo-phenyl)-meth-(E)-ylidene]-2-methyl-2-aza-bicyclo[3.3.1]nonan-7-one]	8.79

Reference: BindingDB's records for doi:10.1021/jm00024a005 (National Institute of Diabetes and Digestive and Kidney …, 1996)
